In patent US7700562B2, “Use of —furin—“convertase” inhibitors in the treatment of fibrosis and scarring” (Renovo Limited, priority 2002, dated 2010):
Non-standard residues stand in square brackets, D forms with d. Residues, ends and D or L forms follow the SMILES beside them. *: point of attachment. Sta = CC(C)C[C@H](N)[C@@H](O)CC(=O)O; Decanoyl = CCCCCCCCCC(=O)*; Isovaleryl = CC(C)CC(=O)*; CH2Cl = ClC*

Experiments:
[1] = system: latent TGF-β activation in human platelets; assay: TGF-β activation by thrombin-activated human platelets, active and total TGF-β by PAI/L bioassay; format: cell-based; settings: for latent TGF-β activation: platelets pre-incubated with inhibitor before thrombin stimulation, platelet releasates, FIG. 1 panels A and B
[2] = system: latent TGF-β activation in human platelets; assay: as above; format: cell-based; settings: for active TGF-β in releasates: thrombin-stimulated platelets, hexaarginine pre-incubated, dec-RVKR-cmk added, FIG. 2 panel A
Experimental: Peripheral venous blood samples from healthy adult volunteers (aged 21 to 45) were taken into 20-gauge S-Monovettes. EDTA was used to prevent coagulation of the samples. Human platelets were isolated by differential centrifugation according to the following protocol:
Blood samples were centrifuged at 300 g for 10 minutes to produce a supernatant of platelet rich plasma. Platelet rich plasma was then centrifuged at 2,500 g for 15 minutes to produce a pellet of platelets. Platelets were harvested from the pellet and resuspended prior to use.
(§1) Platelets collected as described above were resuspended in distilled water and incubated at room temperature for 5 minutes. Lysis was stopped by addition of an equal volume of 2× serum-free DME medium containing 0.2% pyrogen poor bovine serum albumen. The lysate was cleared by centrifugation at 12,000 g for 10 minutes at room temperature before use.
Human platelets collected as outlined above were activated by the addition of thrombin (0.1 u/ml for 30 minutes at 37° C.).
Platelets were activated with thrombin in the absence or presence of furin inhibitors. […] Active and total TGF-β in releasates were determined in the PAI/L bioassay. The results are shown in panel A of FIG. 2.

[3] = system: latent TGF-β activation in platelet-free releasates; assay: TGF-β activation in platelet-free releasates of activated platelets, PAI/L bioassay; format: biochemical, human; settings: inhibitor added to platelet-free releasates, 30 mm at 37° C.; FIG. 2B
Experimental: In a further experiment, furin inhibitors were added to platelet-free releasates of activated platelets, and activation was allowed to continue in the absence of platelets for […] at 37° C. The results of this experiment are shown in panel B of FIG. 2. Active TGF-β levels in the controls were 77 pg/ml (dec-RVKR-cmk data (SEQ ID NO:1)) and 104 pg/ml (hexaarginine data (SEQ ID NO: 7)). Incubation on ice reduced activation in the controls to approximately 56% (data not shown). Data represent the mean values of three independent experiments assayed in triplicate.

[4] = system: furin-like enzyme activity; assay: Furin-like enzyme activity in platelet lysates and releasates, fluorogenic furin substrate pyr-RTKR-amc; format: biochemical, human; settings: hexaarginine 200 μM, dec-RVKR-cmk 150 μM, FIG. 3; for furin-like enzyme activity in cell lysates: hypotonic lysates of activated platelets; for furin-like enzyme activity in releasates: releasates of activated platelets
Experimental: as §1
Releasates or hypotonic lysates of activated platelets were assayed using the furin substrate, pyr-RTKR-amc (SEQ ID NO:3) in the absence or presence of the furin inhibitors, hexaarginine (SEQ ID NO: 7) (200 μM) or dec-RVKR-cmk (SEQ ID NO:1) (150 μM). Values were corrected for substrate-independent endogenous fluorescence (control without substrate) as well as for spontaneous substrate hydrolysis (buffer control). Mean values±S.E.M. of 2-3 separate experiments assayed in duplicate are shown.
The presence of furin-like enzyme activity in both hypotonic lysates and releasates of human platelets was analysed using the fluorogenic furin substrate, pyr-RTKR-amc (SEQ ID NO:3). Platelet lysates contained a furin-like enzyme activity, part of which (approximately 12%) was released upon thrombin stimulation. Enzyme activity in cell lysates and releasates was inhibited by dec-RVKR-cmk (SEQ ID NO:1) and hexa-L-arginine (SEQ ID NO: 7) (FIG. 3).

## CC(C)C[C@H](NC(=O)[C@H]1O[C@@H]1C(=O)O)C(=O)NCCCCN=C(N)N [E-64]
[1]
  latent TGF-β activation: ineffective

## O=C[C@@H](O)[C@@H](O)[C@H](O)[C@H](O)COP(=O)(O)O [M6P, mannose-6-phosphate]
[1]
  latent TGF-β activation: not significantly affected

## CC(=O)N[C@@H](CC(C)C)C(=O)N[C@@H](CC(C)C)C(=O)N[C@H](C=O)CCCNC(=N)N [leupeptin]
[1]
  latent TGF-β activation: ineffective

## Cl.NCCc1ccc(S(=O)(=O)F)cc1 [pefabloc]
[1]
  latent TGF-β activation: ineffective

## CC(C)CC(=O)N[C@H](C(=O)N[C@H](C(=O)N[C@@H](CC(C)C)[C@@H](O)CC(=O)N[C@@H](C)C(=O)N[C@@H](CC(C)C)[C@@H](O)CC(=O)O)C(C)C)C(C)C [pepstatin] (Isovaleryl-VV[Sta]A[Sta]-OH)
[1]
  latent TGF-β activation: ineffective

## LSKL peptide: inhibitor specific for TSP-1
[1]
  latent TGF-β activation: not significantly affected

## aprotinin
[1]
  latent TGF-β activation: ineffective

## decanoyl-Arg-Val-Lys-Arg-chloromethyl ketone (Decanoyl-RVKR-CH2Cl) [dec-RVKR-cmk]
[2]; remaining after inhibitor, believed to be activated prematurely during platelet preparation
  residual TGF-β present: 20-30%
[2]
  active TGF-β in releasates: considerably reduces
[3]
  activation in platelet-free releasates: inhibited, in a dose-dependent fashion
[4]
  furin-like enzyme activity in cell lysates: inhibited
  furin-like enzyme activity in releasates: inhibited
[1]; measured in hypotonic lysates, dose-dependent, FIG. 1 panel C
  generation of active TGF-β intracellularly: drastically reduced
[1]; platelet incubation with inhibitor, thrombin stimulation, dose-dependent, FIG. 1 panel C
  generation of active TGF-β in releasates: drastically reduced

## hexa-L-arginine (RRRRRR)
[2]
  active TGF-β in releasates: significantly reduced
[3]
  activation in platelet-free releasates: inhibited, in a dose-dependent fashion
[4]
  furin-like enzyme activity in cell lysates: inhibited
  furin-like enzyme activity in releasates: inhibited

## α1-antitrypsin
[1]
  latent TGF-β activation: ineffective
